Results taken from paper PMC10914731, “Homo-BacPROTAC-induced degradation of ClpC1 as a strategy against drug-resistant mycobacteria” (Nature Communications, 2024).
≈ marks a conversion by molar mass, not a printed value. Where “and” joins values, the source holds several entries; their conditions need not be identical. Equal values may be shown once. Read-outs that look alike come from different tables or passages of the source.

Tests used:
[1] = test system: M. tuberculosis H37Rv (ATCC 27294); experiment: microbe, parasite or virus in culture; assay type: cell-based
[2] = test system: Mycobacterium avium; experiment: microbe, parasite or virus in culture; assay type: cell-based
[3] = test system: replicating Mtb H37Rv cells; experiment: Resazurin growth assay, replicating Mtb H37Rv (Supplementary Fig. 2); assay type: cell-based, Mycobacterium tuberculosis; conditions: three replicate columns
[4] = target: ClpC1-NTD substrate, M. tuberculosis ClpC1P1P2 (Mycobacterium tuberculosis, UniProt P9WPC9); experiment: biochemical; assay type: biochemical; conditions: Mtb; mean of the measurements; read-out: DC50, Mean
[5] = test system: Mycobacterium fortuitum; experiment: microbe, parasite or virus in culture; assay type: cell-based
[6] = test system: Enterococcus faecium; experiment: MIC ESKAPES panel, Enterococcus faecium; assay type: cell-based
Summary of the method: (§1)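 CLSI broth microdilution was run in Mueller Hinton broth with an inoculum of 3–7 × 10^5 cfu/ml at 37 °C. Turbidity was read on day 2; clear wells indicated growth inhibition.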

[7] = test system: Staphylococcus aureus; experiment: MIC ESKAPES panel, Staphylococcus aureus; assay type: cell-based
Summary of the method: as §1

[8] = test system: Klebsiella pneumoniae; experiment: MIC ESKAPES panel, Klebsiella pneumoniae; assay type: cell-based
Summary of the method: as §1

[9] = test system: Mtb # 11291; experiment: microbe, parasite or virus in culture; assay type: cell-based
[10] = test system: Mycobacterium intracellulare; experiment: microbe, parasite or virus in culture; assay type: cell-based
[11] = test system: Msm #607; experiment: Minimum bactericidal concentration (MBC), Msm #607; assay type: cell-based, Mycobacterium smegmatis; conditions: for MBC: Mycolicibacterium smegmatis
[12] = test system: Msm 607; experiment: microbe, parasite or virus in culture; assay type: cell-based
[13] = target: His6-tagged ClpC1-NTD substrate, M. smegmatis ClpC1P1P2 (UniProt A0R574+P9WPC9); experiment: biochemical; assay type: biochemical; conditions: for % Response / ClpC1-NTD peak area: Figure 4a source data, well replicates
[14] = test system: Mtb ATCC 35825; experiment: microbe, parasite or virus in culture; assay type: cell-based
[15] = assay type: in vitro ADME, Mice; conditions: clearance in microsomes
Summary of the method: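 Metabolic depletion in liver microsomes (0.5 mg/ml, 1 mM NADPH, 37 °C) starting from 1 µmol/l test compound, sampled at multiple times with acetonitrile quench. LC-MS/MS quantitation; half-life converted to %Qh.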

[16] = test system: Mtb H37Rv; experiment: Minimum bactericidal concentration (MBC), Mtb H37Rv; assay type: cell-based, Mycobacterium tuberculosis; conditions: for MBC: Mycobacterium tuberculosis, H37RV
[17] = Experiment 2, three replicate columns
[18] = Gram-Positive Bacteria, replicates 1-3, listed as 8 (UdSBI-0545)
[19] = single well replicates, listed as 8 (UdSBAI-0545)

His6-tagged ClpC1-NTD substrate, M. smegmatis ClpC1P1P2, sequence (P9WPC9 1-156, looked up, natural form): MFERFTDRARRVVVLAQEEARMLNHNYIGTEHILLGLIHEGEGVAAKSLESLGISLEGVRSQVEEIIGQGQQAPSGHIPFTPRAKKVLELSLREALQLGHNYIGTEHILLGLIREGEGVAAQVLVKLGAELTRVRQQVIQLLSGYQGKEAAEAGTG
His6-tagged ClpC1-NTD substrate, M. smegmatis ClpC1P1P2, sequence (A0R574 whole entry): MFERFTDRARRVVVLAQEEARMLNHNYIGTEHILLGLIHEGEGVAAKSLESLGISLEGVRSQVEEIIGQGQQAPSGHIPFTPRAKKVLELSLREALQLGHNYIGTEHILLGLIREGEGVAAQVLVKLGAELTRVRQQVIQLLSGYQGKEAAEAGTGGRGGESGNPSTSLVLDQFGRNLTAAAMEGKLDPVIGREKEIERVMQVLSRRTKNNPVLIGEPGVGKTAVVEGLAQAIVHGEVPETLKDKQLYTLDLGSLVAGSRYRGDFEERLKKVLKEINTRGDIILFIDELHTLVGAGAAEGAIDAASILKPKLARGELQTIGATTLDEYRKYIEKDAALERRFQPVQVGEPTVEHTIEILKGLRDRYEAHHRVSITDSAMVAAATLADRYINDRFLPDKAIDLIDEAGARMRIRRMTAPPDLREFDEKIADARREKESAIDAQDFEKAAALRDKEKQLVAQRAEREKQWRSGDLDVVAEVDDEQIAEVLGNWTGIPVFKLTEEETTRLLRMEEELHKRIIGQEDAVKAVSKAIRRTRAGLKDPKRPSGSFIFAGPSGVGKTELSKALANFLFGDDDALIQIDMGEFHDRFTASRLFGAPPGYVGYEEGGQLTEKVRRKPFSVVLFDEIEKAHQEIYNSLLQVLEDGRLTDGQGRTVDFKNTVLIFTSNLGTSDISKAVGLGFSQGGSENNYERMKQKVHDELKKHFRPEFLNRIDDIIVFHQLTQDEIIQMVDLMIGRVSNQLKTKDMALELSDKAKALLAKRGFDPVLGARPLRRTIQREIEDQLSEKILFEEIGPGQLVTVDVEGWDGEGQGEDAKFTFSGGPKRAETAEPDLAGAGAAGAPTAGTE
ClpC1-NTD substrate, M. tuberculosis ClpC1P1P2, sequence (P9WPC5 whole entry): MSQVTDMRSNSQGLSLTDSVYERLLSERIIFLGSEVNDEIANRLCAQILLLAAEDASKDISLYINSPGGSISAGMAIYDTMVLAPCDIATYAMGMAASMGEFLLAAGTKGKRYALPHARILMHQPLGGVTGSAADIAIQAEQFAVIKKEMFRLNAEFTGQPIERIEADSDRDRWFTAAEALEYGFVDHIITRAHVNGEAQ
ClpC1-NTD substrate, M. tuberculosis ClpC1P1P2, sequence (P9WPC9 whole entry): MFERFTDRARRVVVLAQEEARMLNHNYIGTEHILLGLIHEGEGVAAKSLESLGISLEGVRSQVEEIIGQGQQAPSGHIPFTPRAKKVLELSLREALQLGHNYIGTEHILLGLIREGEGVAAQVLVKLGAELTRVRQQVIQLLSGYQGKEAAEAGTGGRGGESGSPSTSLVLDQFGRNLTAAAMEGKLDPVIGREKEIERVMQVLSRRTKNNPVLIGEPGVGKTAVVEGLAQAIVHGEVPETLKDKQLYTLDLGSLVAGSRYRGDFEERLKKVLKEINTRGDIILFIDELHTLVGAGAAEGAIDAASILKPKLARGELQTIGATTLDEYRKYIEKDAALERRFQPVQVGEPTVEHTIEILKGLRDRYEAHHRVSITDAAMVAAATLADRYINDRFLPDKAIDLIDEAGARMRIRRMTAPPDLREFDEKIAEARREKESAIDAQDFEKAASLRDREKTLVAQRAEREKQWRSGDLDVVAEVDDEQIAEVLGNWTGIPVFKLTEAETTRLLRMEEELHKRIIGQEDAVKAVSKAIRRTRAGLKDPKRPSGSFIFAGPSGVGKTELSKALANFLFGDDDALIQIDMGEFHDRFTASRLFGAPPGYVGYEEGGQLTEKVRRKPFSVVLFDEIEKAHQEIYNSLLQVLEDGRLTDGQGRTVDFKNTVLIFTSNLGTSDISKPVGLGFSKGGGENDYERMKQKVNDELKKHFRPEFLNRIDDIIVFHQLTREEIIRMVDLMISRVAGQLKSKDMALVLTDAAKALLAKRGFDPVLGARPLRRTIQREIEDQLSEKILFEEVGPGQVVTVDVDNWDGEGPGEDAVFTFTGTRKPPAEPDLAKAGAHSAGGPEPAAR
ClpC1-NTD substrate, M. tuberculosis ClpC1P1P2, sequence (P9WPC3 whole entry, further chain): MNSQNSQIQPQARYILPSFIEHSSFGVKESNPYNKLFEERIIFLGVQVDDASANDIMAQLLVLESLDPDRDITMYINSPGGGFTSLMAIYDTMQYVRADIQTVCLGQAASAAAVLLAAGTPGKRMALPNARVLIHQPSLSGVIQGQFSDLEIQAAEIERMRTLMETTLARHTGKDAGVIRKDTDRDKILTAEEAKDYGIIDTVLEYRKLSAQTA

Compound: COC(c1ccccc1)C1NC(=O)C(C)NC(=O)C(CC(C)CO)N(C)C(=O)C(Cc2cn(Cc3cn(CCOCCOCCOCCOCCn4cc(Cn5cc(CC6NC(=O)C(C(C)C)NC(=O)C(CC(C)C)N(C)C(=O)C(C(C)C)NC(=O)C(C(OC)c7ccccc7)NC(=O)C(C)NC(=O)C(CC(C)CO)N(C)C6=O)c6ccccc65)nn4)nn3)c3ccccc23)NC(=O)C(C(C)C)NC(=O)C(CC(C)C)N(C)C(=O)C(C(C)C)NC1=O (stereo not drawn) [Compound 8]
- MIC ([1]; Mycobacterium tuberculosis, M. tuberculosis H37Rv 27294, single well replicates, read-out: MIC): 0.098 µM (≈ 0.213 µg/mL)
- MIC ([1]; Mycobacterium tuberculosis, M. tuberculosis H37Rv strain, read-out: MIC Mtb H37Rv Mean ± SD): 0.4 ± 0.4 µM (≈ 0.868 µg/mL)
- MIC ([1]; Mycobacterium tuberculosis, Mtb H37Rv (Supplementary Table 2), read-out: MIC Mtb): 0.4 ± 0.4 µM (≈ 0.868 µg/mL)
- MIC ([1]; Mycobacterium tuberculosis, Mtb H37Rv, mean ± SD, n = 3 well replicates, read-out: MIC): 0.2 ± 0.1 µM (≈ 0.434 µg/mL)
- MIC ([1]; Mycobacterium tuberculosis, Set 1, read-out: MIC (Mtb H37Rv) Set 1): 0.1 µM and 0.21 µg/mL
- MIC ([1]; Mycobacterium tuberculosis, Set 2, read-out: MIC (Mtb H37Rv) Set 2): 0.05 µM and 0.1 µg/mL
- MIC ([1]; Mycobacterium tuberculosis, Set 3, done at a different day than Set 1 and Set 2, read-out: MIC (Mtb H37Rv) Set 3): 0.1 µM and 0.21 µg/mL
- MIC ([1]; Mycobacterium tuberculosis, individual example (Supplementary Table 11), read-out: MIC Mtb H37Rv): 0.1 µM and 0.2 µg/mL
- MIC ([1]; Mycobacterium tuberculosis, mean of 3 experiments +/- SD, unit taken from the sets above in the same table, read-out: MIC data (Mtb H37Rv) (+/- SD)): 0.08 µM and 0.17 µg/mL
- MIC ([1]; individual measurements (source data), listed as 8 (UdSBI-0545), read-out: Mtb MIC): 0.780 µM (2×) and 0.097 µM (2×)
- MIC ([2]; Experiment 1, listed as 8 (UdSBI-0545), read-out: MIC Mycobacterium avium): >50 µM
- MIC (µg/ml) Mycobacterium avium [2, 17]: >108.53 µg/mL
- MIC ([2]; Experiment 2, three replicate columns, read-out: MIC (µM) Mycobacterium avium): >50 µM
- MIC ([2]; Mycobacterium avium, Experiment 1, read-out: MIC Mycobacterium avium): > 109 µg/mL
- MIC ([2]; Mycobacterium avium, Experiment 2, three replicate columns, read-out: MIC (µM) Mycobacterium avium): > 50 µM
- MIC ([2]; Mycobacterium avium, Experiment 2, three replicate columns, read-out: MIC (µg/ml) Mycobacterium avium): > 109 µg/mL
- MIC ([2]; Mycobacterium avium, mean ± SD, read-out: MIC Mycobacterium avium): > 50 µM
- Supplementary Figure 2 dose-response value, replicating H37Rv cells ([3]; Conc. 0.0488281 µM): 104.399 and 96.7961 and 102.12
- Supplementary Figure 2 dose-response value, replicating H37Rv cells ([3]; Conc. 0.0976562 µM): 93.8283 and 89.4675 and 92.0871
- Supplementary Figure 2 dose-response value, replicating H37Rv cells ([3]; Conc. 0.195312 µM): 90.4271 and 81.4889 and 87.4903
- Supplementary Figure 2 dose-response value, replicating H37Rv cells ([3]; Conc. 0.390625 µM): 51.3931 and 36.6199 and 50.2013
- Supplementary Figure 2 dose-response value, replicating H37Rv cells ([3]; Conc. 0.78125 µM): -3.993 and -4.461 and -3.242
- Supplementary Figure 2 dose-response value, replicating H37Rv cells ([3]; Conc. 1.5625 µM): -4.627 and -5.471 and -5.181
- Supplementary Figure 2 dose-response value, replicating H37Rv cells ([3]; Conc. 3.125 µM): -6.152 and -6.465 and -5.866
- Supplementary Figure 2 dose-response value, replicating H37Rv cells ([3]; Conc. 6.25 µM): -7.417 and -8.76 and -6.686
- Supplementary Figure 2 dose-response value, replicating H37Rv cells ([3]; Conc. 25 µM): -8.655 and -4.856 and -8.241
- Supplementary Figure 2 dose-response value, replicating H37Rv cells ([3]; Conc. 50 µM): -5.541 and -9.178 and -8.98
- Supplementary Figure 2 dose-response value, replicating H37Rv cells ([3]; Conc. 100 µM): -7.259 and -9.127 and -7.68
- DC50 [4]: 8.3 µM
- MIC ([5]; Experiment 1, listed as 8 (UdSBI-0545), read-out: MIC Mycobacterium fortuitum): >50 µM
- MIC (µg/ml) Mycobacterium fortuitum [5, 17]: >108.53 µg/mL
- MIC ([5]; Experiment 2, three replicate columns, read-out: MIC (µM) Mycobacterium fortuitum): >50 µM
- MIC ([5]; Mycolicibacterium fortuitum, Experiment 1, read-out: MIC Mycobacterium fortuitum): > 109 µg/mL
- MIC ([5]; Mycolicibacterium fortuitum, Experiment 2, three replicate columns, read-out: MIC (µM) Mycobacterium fortuitum): > 50 µM
- MIC ([5]; Mycolicibacterium fortuitum, Experiment 2, three replicate columns, read-out: MIC (µg/ml) Mycobacterium fortuitum): > 109 µg/mL
- MIC ([5]; Mycolicibacterium fortuitum, mean ± SD, read-out: MIC Mycobacterium fortuitum): > 50 µM
- MIC ([6]; Enterococcus faecium, Gram positive, n = 3 well replicates): > 50 µM
- MIC ([6]; Enterococcus faecium, Gram-Positive Bacteria, replicates 1-3): > 109 µg/mL
- MIC [6, 18]: >50 µM
- MIC [7, 18]: >50 µM
- MIC ([7]; Staphylococcus aureus, Gram positive, n = 3 well replicates): > 50 µM
- MIC ([7]; Staphylococcus aureus, Gram-Positive Bacteria, replicates 1-3): > 109 µg/mL
- MIC ([8]; Gram-Negative Bacteria, replicates 1-3, listed as 8 (UdSBI-0545)): >50 µM
- MIC ([8]; Klebsiella pneumoniae, Gram negative, n = 3 well replicates): > 50 µM
- MIC ([8]; Klebsiella pneumoniae, Gram-Negative Bacteria, replicates 1-3): > 109 µg/mL
- MIC ([9]; Mycobacterium tuberculosis, mean, n = 2 well replicates, read-out: MIC Mtb # 11291): < 0.1 µM and < 0.2 µg/mL
- MIC ([9]; Mycobacterium tuberculosis, read-out: MIC Mtb # 11291, single well replicates): < 0.1 µM and < 0.21 µg/mL
- MIC Mtb # 11291 [9, 19]: <0.21 µg/mL
- MIC ([9]; single well replicates, listed as 8 (UdSBAI-0545), read-out: MIC Mtb # 11291): <0.1 µM
- MIC ([10]; Experiment 1, listed as 8 (UdSBI-0545), read-out: MIC Mycobacterium intracellulare): >50 µM
- MIC (µg/ml) Mycobacterium intracellulare [10, 17]: >108.53 µg/mL
- MIC ([10]; Experiment 2, three replicate columns, read-out: MIC (µM) Mycobacterium intracellulare): >50 µM
- MIC ([10]; Mycobacterium intracellulare, Experiment 1, read-out: MIC Mycobacterium intracellulare): > 109 µg/mL
- MIC ([10]; Mycobacterium intracellulare, Experiment 2, three replicate columns, read-out: MIC (µM) Mycobacterium intracellulare): > 50 µM
- MIC ([10]; Mycobacterium intracellulare, Experiment 2, three replicate columns, read-out: MIC (µg/ml) Mycobacterium intracellulare): > 109 µg/mL
- MIC ([10]; Mycobacterium intracellulare, mean ± SD, read-out: MIC Mycobacterium intracellulare): > 50 µM
- colony growth after replating (MBC assay) ([11]; Msm #607, up to 50 µM, result in words): growth of colonies could be observed across all tested concentrations
- MBC ([11]; ATCC607, read-out: MBC (from Set 3) Msm ATCC 607): > 109 µg/mL and > 50 µM
- MBC ([11]; read-out: MBC Msm #607, individual example): > 50 µM and > 108 µg/mL
- MIC ([12]; Mycolicibacterium smegmatis, 607, read-out: MIC Msm 607): 1.9 ± 0.9 µM (≈ 4.12 µg/mL)
- MIC ([12]; Mycolicibacterium smegmatis, 607, read-out: MIC Msm #607, individual example (Supplementary Table 11)): 1.6 µM and 3.4 µg/mL
- MIC ([12]; Mycolicibacterium smegmatis, ATCC607, Set-1, read-out: MIC (Msm ATCC607) Set-1): 3.12 µM and 6.78 µg/mL
- MIC ([12]; Mycolicibacterium smegmatis, ATCC607, Set-2, read-out: MIC (Msm ATCC607) Set-2): 1.56 µM and 3.39 µg/mL
- MIC ([12]; Mycolicibacterium smegmatis, ATCC607, Set-3, done at a different day than Set 1 and Set 2, read-out: MIC (Msm ATCC607) Set-3): 1.56 µM and 3.39 µg/mL
- MIC ([12]; Mycolicibacterium smegmatis, ATCC607, mean of 3 experiments ± SD, read-out: MIC including standard deviations (Msm ATCC607)): 2.08 µM and 4.5 µg/mL
- DC50 ([13]; Msm, Measurement 1-6, read-out: DC50, single measurements): 9 µM and 8.5 µM and 6 µM and 8.1 µM and 8.2 µM
- DC50 ([13]; cell-free degradation of ClpC1-NTD, 90 min, read-out: DC50 M.smegmatis ClpC1P1P2 Mean): 8 µM
- % Response ([13]; conc. 0.4 µM): 120.356% and 117.751% and 102.838% and 93.7015% and 104.532% and 103.754% and 118.347% and 117.353% and 124.609%
- ClpC1-NTD peak area ([13]; conc. 0.4 µM): 613438 and 713203 and 1462174 and 1713249 and 1751036 and 1183458 and 1105910 and 1047700 and 547599
- % Response ([13]; conc. 33.3 µM): 25.9293% and 29.5058% and 21.1338% and 16.911% and 37.0492% and 22.8094% and 15.8145% and 16.4069% and 19.2475%
- ClpC1-NTD peak area ([13]; conc. 33.3 µM): 245614 and 155160 and 213594 and 218458 and 306322 and 219308 and 255600 and 176271 and 124945
- % Response ([13]; conc. 100.0 µM): 31.4886% and 23.4001% and 28.8941% and 17.4698% and 14.335% and 19.5877% and 11.6161% and 9.907% and 14.2139%
- ClpC1-NTD peak area ([13]; conc. 100.0 µM): 99143.4 and 153042 and 198962 and 150433 and 187091 and 243688 and 174896 and 223232 and 140724
- MIC ([14]; Mycobacterium tuberculosis, ATCC35825, mean, n = 2 well replicates): < 0.1 µM and < 0.2 µg/mL
- MIC ([14]; Mycobacterium tuberculosis, ATCC35825, single well replicates): < 0.21 µg/mL and < 0.1 µM
- MIC [14, 19]: <0.1 µM
- MIC Mtb ATCC 35825 [14, 19]: <0.21 µg/mL
- Microsomal Stability Mice [15]: 72 %Qh
- colony growth after replating (MBC assay) ([16]; Mtb H37Rv, result in words): did not form any colonies at concentrations at or above the MIC value
- MBC ([16]; read-out: MBC (from Set 3) Mtb H37Rv): 0.22 µg/mL and 0.1 µM
- MBC ([16]; individual example, read-out: MBC Mtb H37Rv): 0.1 µM and 0.2 µg/mL
